Measured values reported in article PMC9387934, “Randomized single oral dose phase 1 study of safety, tolerability, and pharmacokinetics of Iminosugar UV-4 Hydrochloride (UV-4B) in healthy subjects” (PLoS Neglected Tropical Diseases, 2022).
Where a name gives a salt, the structure may show the parent alone.

Experiments:
all ten CYPs = tested on: all ten CYPs; design: method as in Investigator’s Brochure (IB); settings: all ten CYPs at the tested conditions; ref Investigator’s Brochure (IB); cited from earlier work
[1] = cited from earlier work
[2] = Seven-day repeat dose non-GLP study in rats (UV4-COV-0045); assay type: in vivo, rat; settings: for a 60 kg human
Method: The seven-day repeat dose study in rats was conducted at 10 mg/kg/dose TID (30 mg/kg/day), 25 mg/kg/dose TID (75 mg/kg/day), and 60 mg/kg/dose TID (180 mg/kg/day).
At 10 mg/kg/dose, mild to moderate clinical hematology and clinical chemistry changes and histopathological changes in the gastrointestinal tract (GI) similar to dogs and mice were observed; therefore this dose exceeded the no observed effect level (NOEL). At […]
60 mg/kg/dose there were similar findings to mice and dogs but a unique finding of possible […]
skin, paws and/or feet. These findings appeared within 120 minutes of treatment with the first or second daily dose 60 mg/kg/dose (TID) on Day 1 or Day 2. This response was transient and self-limiting, and was not observed after Day 2 in either the single or repeated doses. […]
The inverted AST/ALT ratio […]
and lymphocyte depletion were reversible. Thymus weight decrease in females was reversible but thymus weight decreases in males were not. However, because the apparent […]
microscopic thymus findings, thymus weight differences at the recovery necropsy were considered not toxicologically important. In mice at 25 mg/kg/dose (75 mg/kg/day) there were decreased thymus weights (males), follicular epithelium vacuolation in the thyroid, and lymphoid depletion of the thymus (males). […]
Daily exposure [calculated as 3 x AUC(0-8)] is estimated at 32,820 ng•h/mL. […]

[3] = design: method as in Investigator’s Brochure (IB); settings: 50 mg/kg/day for 12 days; ref Investigator’s Brochure (IB); cited from earlier work
[4] = Reproductive toxicity upper limit study in rats, 12 days; assay type: in vivo, rat; settings: 50 mg/kg/day
Method: 7. Reproductive toxicity:
UV-4B has been evaluated for developmental and reproductive toxicity in fertility and early embryonic development in rats, embryo-fetal development in rats and rabbits, and pre- and postnatal development in rats. In male and female rats given UV-4B at 8, 20, and 50 mg/kg/day before mating and continuing through Gestation Day 13, a […]
observed at 50 mg/kg/day. […]
count but following a 21-week treatment-free period there was complete recovery in pregnancy and fertility indices However, decrease in testicular weight, sperm motility […]
identify the upper limit of reproductive toxicity, a dose of 50 mg/kg/day for 12 […]
In a study designed to identify the upper limit of reproductive toxicity, a dose of 50 […]
rabbit offspring. The rat and rabbit doses are equivalent to 486 and 966 mg/day, […]
In summary, findings that have been identified in the UV-4B toxicology studies so far include effects on the GI tract (including ulcers/erosions), lymphocytes and lymphoid tissue, reduction in PLT count, and increases in transaminases (AST>ALT). Findings were generally consistent across mouse, dog, and rat, apart from the isolated finding of swollen paws/legs and perioral appearance and red skin which was seen only in the rat. […]

[5] = cited from earlier work; remark: listed apart in the source

SMILES	Potential for metabolism-dependent inhibition (all ten CYPs)	Vacuoles in kidney (F) ([1]; rat, 25 TID mg/kg)	Swollen paws/legs and perioral appearance and red skin, paws and/or feet ([1]; rat, 60 TID mg/kg, second symbol (later day))	Decreased lymphocytes in mesenteric lymph node (F) ([1]; rat, 60 TID mg/kg)	Possible histamine-like in-life clinical signs ([1]; rats, 60 mg/kg/dose TID, Day 1 or Day 2, transient, ref Investigator’s Brochure (IB))	No observed effect level (NOEL) ([1]; rats, TID for seven days, lowest dose exceeded the NOEL, ref Investigator’s Brochure (IB)) [mg/kg/dose]	Time to appearance of histamine-like signs after treatment ([1]; rats, first or second daily dose of 60 mg/kg/dose (TID), ref Investigator’s Brochure (IB)) [min]	Finding at 25 mg/kg/dose (TID) ([1]; rats, seven days, ref Investigator’s Brochure (IB))	HED of 60 mg/kg/dose in rats [2] [mg]	Finding in rat offspring [3]	Human equivalent of the rat dose [4] [mg/day]	No clinically relevant effects ([5]; dog CV single dose, 10 mg/kg)	Cardiovascular assessment ([5]; dogs, 10 mg/kg, ref Investigator’s Brochure (IB))	Cardiovascular assessment, only change outside the normal range ([5]; dogs, 50 or 200 mg/kg, ref Investigator’s Brochure (IB))
COCCCCCCCCCN1C[C@H](O)[C@@H](O)[C@H](O)[C@H]1CO [UV-4, N-(9’-methoxynonyl)-1-deoxynojirimycin]	no significant potential													
COCCCCCCCCCN1C[C@H](O)[C@@H](O)[C@H](O)[C@H]1CO [UV-4B, N-(9’-methoxynonyl)-1-deoxynojirimycin hydrochloride]		P(F)	−	P(F)	swollen paws/legs and perioral appearance	< 10	≤ 120	dose-limiting erosions/ulcerations in the stomach	580	increase in skeletal malformations	486	−	no clinically relevant effects	decreased arterial pulse pressure
